Source: patent publication US20250009742A1 (priority 2021, published 2025)

Key:
[1] = Cell viability assay (EZ-Cytox), cytotoxicity; assay type: cell-based; conditions: human, HepAD38 cells; for viability at 65 h, 100 µM: read-out: Cytotoxicity % Livability (@100 μM)
Experimental: HepAD38 cells were cultured for 2 days in Dulbecco's Modified Eagle's medium (Welgene, LM001-05) supplemented with 10% FBS without tetracycline. […] After 65 hours of treatment, viability was measured using EZ-Cytox cell viability assay kit (Daeil Lab Service) according to the manufacturer's instructions. The absorbance was measured at 450 nm using a spectrophotometer (Spark, Tecan).

intracellular HBV DNA = assay: Real-time PCR for intracellular HBV DNA in HepAD38 cells; assay type: cell-based; conditions: Hepatitis B virus, HePAD38, 65 h, 65 hours treatment

| SMILES | CC50 at 65 h [1] [nM] | viability at 65 h, 100 µM [1] [%] | IC50 (intracellular HBV DNA) [nM] |
| --- | --- | --- | --- |
| COc1cc(C)c(N(Cc2cc(C(F)(F)F)[nH]n2)C(=O)Nc2ccc(F)c(Cl)c2)c(C)c1 [Example 29, 3-(3-chloro-4-fluorophenyl)-1-(4-methoxy-2,6-dimethylphenyl)-1-((5-(trifluoromethyl)-1H-pyrazol-3-yl)methyl)urea] | 12200 | 6.9 | > 1100 |
| COc1nc(C)c(N(Cc2cc(C(F)(F)F)[nH]n2)C(=O)Nc2ccc(F)c(Cl)c2)c(C)n1 [Example 30, 3-(3-chloro-4-fluorophenyl)-1-(2-methoxy-4,6-dimethylpyrimidin-5-yl)-1-((5-(trifluoromethyl)-1H-pyrazol-3-yl)methyl)urea] | > 100000 | 52.4 | > 1100 |
| COc1ccc(N(Cc2nn(C)c3c2COCC3)C(=O)Nc2ccc(F)c(Cl)c2)cc1 [Example 39, 3-(3-chloro-4-fluorophenyl)-1-(4-methoxyphenyl)-1-((1-methyl-1,4,6,7-tetrahydropyrano[4,3-c]pyrazol-3-yl)methyl)urea] | > 100000 | 96 | 330 |
| COc1ccc(N(Cc2n[nH]c3c2COCC3)C(=O)Nc2ccc(F)c(Cl)c2)cn1 [Example 55, 3-(3-chloro-4-fluorophenyl)-1-(6-methoxypyridin-3-yl)-1-((1,4,6,7-tetrahydropyrano[4,3-c]pyrazol-3-yl)methyl)urea] | > 100000 | 102 | 17 |
| COc1ccc(N(Cc2nn(CCOC3CCCCO3)c3c2CCC3)C(=O)Nc2ccc(F)c(Cl)c2)cn1 (stereo not shown) [Example 66, 3-(3-chloro-4-fluorophenyl)-1-(6-methoxypyridin-3-yl)-1-((1-(2-(tetrahydro-2H-pyran-2-yloxy)ethyl)-1,4,5,6-tetrahydrocyclopenta[c]pyrazol-3-yl)methyl)urea] | 81900 | – | > 300 |
| COc1ccc(N(Cc2nn(CCO)c3c2CCC3)C(=O)Nc2ccc(F)c(Cl)c2)cn1 [Example 67, 3-(3-chloro-4-fluorophenyl)-1-((1-(2-hydroxyethyl)-1,4,5,6-tetrahydrocyclopenta[c]pyrazol-3-yl)methyl)-1-(6-methoxypyridin-3-yl)urea] | > 100000 | – | > 300 |
| COc1ccc(N(Cc2n[nH]c3c2COC3)C(=O)Nc2ccc(F)c(Cl)c2)cn1 [Example 69, 3-(3-chloro-4-fluorophenyl)-1-((4,6-dihydro-1H-furo[3,4-c]pyrazol-3-yl)methyl)-1-(6-methoxypyridin-3-yl)urea] | > 100000 | 94.5 | 21 |
| COc1cc(N(Cc2n[nH]c3c2COC3)C(=O)Nc2ccc(F)c(Cl)c2)ccn1 [Example 70, 3-(3-chloro-4-fluorophenyl)-1-((4,6-dihydro-1H-furo[3,4-c]pyrazol-3-yl)methyl)-1-(2-methoxypyridin-4-yl)urea] | > 100000 | 98 | 9 |
| COc1cc(N(Cc2n[nH]c3c2OCCO3)C(=O)Nc2ccc(F)c(Cl)c2)ccn1 [Example 71, 3-(3-chloro-4-fluorophenyl)-1-((5,6-dihydro-1H-[1,4]dioxino[2,3-c]pyrazol-3-yl)methyl)-1-(2-methoxypyridin-4-yl)urea] | > 100000 | – | 76 |
| COc1ccc(N(Cc2cc(C(F)F)[nH]n2)C(=O)Nc2ccc(F)c(Cl)c2)cn1 [Example 72, 3-(3-chloro-4-fluorophenyl)-1-((5-(difluoromethyl)-1H-pyrazol-3-yl)methyl)-1-(6-methoxypyridin-3-yl)urea] | > 66600 | 48.5 | 48 |
| COc1cc(N(Cc2n[nH]c3c2COCC3)C(=O)Nc2ccc(F)c(Cl)c2)ccn1 [Example 73, 3-(3-chloro-4-fluorophenyl)-1-(2-methoxypyridin-4-yl)-1-((1,4,6,7-tetrahydropyrano[4,3-c]pyrazol-3-yl)methyl)urea] | > 100000 | 96.6 | 19 |
| COc1cc(N(Cc2cc(C(F)(F)F)[nH]n2)C(=O)Nc2ccc(F)c(Cl)c2)ccn1 [Example 74, 3-(3-chloro-4-fluorophenyl)-1-(2-methoxypyridin-4-yl)-1-((5-(trifluoromethyl)-1H-pyrazol-3-yl)methyl)urea] | > 100000 | 55.6 | 22 |
| COc1cncc(N(Cc2n[nH]c3c2COCC3)C(=O)Nc2ccc(F)c(Cl)c2)c1 [Example 75, 3-(3-chloro-4-fluorophenyl)-1-(5-methoxypyridin-3-yl)-1-((1,4,6,7-tetrahydropyrano[4,3-c]pyrazol-3-yl)methyl)urea] | > 100000 | 92.1 | 36 |
| COc1cncc(N(Cc2cc(C(F)F)[nH]n2)C(=O)Nc2ccc(F)c(Cl)c2)c1 [Example 77, 3-(3-chloro-4-fluorophenyl)-1-((5-(difluoromethyl)-1H-pyrazol-3-yl)methyl)-1-(5-methoxypyridin-3-yl)urea] | > 100000 | 86.7 | 36 |
| COc1ccc(N(Cc2n[nH]c(C(F)(F)F)c2C)C(=O)Nc2ccc(F)c(Cl)c2)cn1 [Example 78, 3-(3-chloro-4-fluorophenyl)-1-(6-methoxypyridin-3-yl)-1-((4-methyl-5-(trifluoromethyl)-1H-pyrazol-3-yl)methyl)urea] | > 100000 | 94 | 30.3 |
| COc1ncc(N(Cc2cc(C(F)(F)F)[nH]n2)C(=O)Nc2ccc(F)c(Cl)c2)cn1 [Example 80, 3-(3-chloro-4-fluorophenyl)-1-(2-methoxypyrimidin-5-yl)-1-((5-(trifluoromethyl)-1H-pyrazol-3-yl)methyl)urea] | 88400 | 21.4 | 19 |
| COCc1c(CN(C(=O)Nc2ccc(F)c(Cl)c2)c2ccc(OC)nc2)n[nH]c1C(F)F [Example 82, 3-(3-chloro-4-fluorophenyl)-1-((5-(difluoromethyl)-4-(methoxymethyl)-1H-pyrazol-3-yl)methyl)-1-(6-methoxypyridin-3-yl)urea] | > 100000 | 85.8 | > 1100 |
| CCOC=Cc1c(CN(C(=O)Nc2ccc(F)c(Cl)c2)c2ccc(OC)nc2)n[nH]c1C(F)(F)F [Example 83, 3-(3-chloro-4-fluorophenyl)-1-((4-(2-ethoxyvinyl)-5-(trifluoromethyl)-1H-pyrazol-3-yl)methyl)-1-(6-methoxypyridin-3-yl)urea] | > 100000 | 95.1 | > 1100 |
| COCCc1c(CN(C(=O)Nc2ccc(F)c(Cl)c2)c2ccc(OC)nc2)n[nH]c1C(F)F [Example 88, 3-(3-chloro-4-fluorophenyl)-1-((5-(difluoromethyl)-4-(2-methoxyethyl)-1H-pyrazol-3-yl)methyl)-1-(6-methoxypyridin-3-yl)urea] | > 100000 | 74.5 | > 1100 |
| COc1ncc(N(Cc2cc(C(F)(F)F)[nH]n2)C(=O)Nc2cc(Cl)c(F)cn2)cn1 [Example 89, 3-(4-chloro-5-fluoropyridin-2-yl)-1-(2-methoxypyrimidin-5-yl)-1-((5-(trifluoromethyl)-1H-pyrazol-3-yl)methyl)urea] | > 100000 | 96 | 50 |
| COc1ncc(N(Cc2n[nH]c(C(F)F)c2C(C)(C)O)C(=O)Nc2ccc(F)c(Cl)c2)cn1 [Example 92, 3-(3-chloro-4-fluorophenyl)-1-((5-(difluoromethyl)-4-(2-hydroxypropan-2-yl)-1H-pyrazol-3-yl)methyl)-1-(2-methoxypyrimidin-5-yl)urea] | > 100000 | – | > 1100 |
| C=C(C)c1c(CN(C(=O)Nc2ccc(F)c(Cl)c2)c2cnc(OC)nc2)n[nH]c1C(F)F [Example 93, 3-(3-chloro-4-fluorophenyl)-1-((5-(difluoromethyl)-4-(prop-1-en-2-yl)-1H-pyrazol-3-yl)methyl)-1-(2-methoxypyrimidin-5-yl)urea] | > 100000 | – | 320 |
| COc1cc(N(Cc2cc(C(F)(F)F)[nH]n2)C(=O)Nc2ccc(F)c(Cl)c2)cnn1 [Example 94, 3-(3-chloro-4-fluorophenyl)-1-(6-methoxypyridazin-4-yl)-1-((5-(trifluoromethyl)-1H-pyrazol-3-yl)methyl)urea] | 64400 | 4.8 | 260 |
| COc1ncc(N(Cc2n[nH]c(C(F)(F)F)c2CC(C)O)C(=O)Nc2ccc(F)c(Cl)c2)cn1 (stereo not shown) [Example 95, 3-(3-chloro-4-fluorophenyl)-1-((4-(2-hydroxypropyl)-5-(trifluoromethyl)-1H-pyrazol-3-yl)methyl)-1-(2-methoxypyrimidin-5-yl)urea] | 62200 | 29.9 | 830 |
| COc1ccc(N(Cc2cc(C(F)(F)F)[nH]n2)C(=O)Nc2ccc(F)c(Cl)c2)nn1 [Example 96, 3-(3-chloro-4-fluorophenyl)-1-(6-methoxypyridazin-3-yl)-1-((5-(trifluoromethyl)-1H-pyrazol-3-yl)methyl)urea] | > 100000 | 93.4 | > 1100 |
| COc1ccc(N(Cc2cc(C(F)F)[nH]n2)C(=O)Nc2ccc(F)c(Cl)c2)nn1 [Example 97, 3-(3-chloro-4-fluorophenyl)-1-((5-(difluoromethyl)-1H-pyrazol-3-yl)methyl)-1-(6-methoxypyridazin-3-yl)urea] | > 100000 | 86.2 | > 1100 |
| COc1cc(N(Cc2cc(C(F)F)[nH]n2)C(=O)Nc2ccc(F)c(Cl)c2)cnn1 [Example 99, 3-(3-chloro-4-fluorophenyl)-1-((5-(difluoromethyl)-1H-pyrazol-3-yl)methyl)-1-(6-methoxypyridazin-4-yl)urea] | > 100000 | 83.4 | 890 |
